Tested on: piPSC lines
Assay: Chemical reprogramming of stable intermediate cell lines
Assay type: cell-based, mouse
Description: A subset of piPS cell lines were treated with RepSox (E-616452) (25 μM), AZA (500 μM), or both for 48 hours. For 2i treatment, CHIR99021 (Stemgent) was used at 3 μM and PD0325901 (Stemgent) was used at 1 μM. Oct4::GFP+ colonies were scored 12 days after the beginning of chemical treatment. Treatments were performed in mES media containing FBS unless otherwise noted.
10× bright field image merged with Oct4::GFP. The concentration of DMSO equals 0.2%.
piPSC or iPSC were plated on irradiated feeders or 0.1% gelatin, and grown in mES media treated with RepSox (E-616452) (25 μM), AZA (500 μM), or both for 48 hours. For 2i treatment, CHIR99021 (Stemgent) was used at 3 μM and PD0325901 (Stemgent) was used at 1 μM. Oct4::GFP+ colonies were scored 12 days after the beginning of chemical treatment. Treatments were performed in mES media containing FBS unless otherwise noted.
To examine whether multiple piPSC lines could be further reprogrammed to a fully pluripotent state, piPSC were cultured in the presence of RepSox, a known inhibitor of Tgf-β signalling previously described to reprogram intermediate cells (Ichida et al., 2009), 2i-treatment, combined chemical inhibition of Mek/Erk and GSK3 signaling (Silva et at, 2008), or the DNA methyl-transferase inhibitor 5′AzaC.

Cc1cccc(-c2[nH]ncc2-c2ccc3ncccc3n2)n1 [RepSox]
reprogramming scored by presence of Oct4::GFP positive colonies (25 μM RepSox, 2i = CHIR99021 3 μM + PD0325901 1 μM, exposed 48 hours, scored 12 days later): a subset of piPSC lines reprogram | further reprogramming to fully reprogrammed iPS cells as determined by the expression of Nanog (25 μM for 48 hours, piPSC lines D, F, G, and E, Nanog RT-PCR at 96 hours): underwent further reprogramming to fully reprogrammed iPS cells
